Experimental findings from ChEMBL document CHEMBL1137066, “Tryptamine-based human beta3-adrenergic receptor agonists. Part 2: SAR of the methylene derivatives” (Bioorg Med Chem Lett, 2004) are described below.

pEC50, pKi: −log10 of the molar value.

Experiment [1] addresses T1, Beta-3 adrenergic receptor (Homo sapiens, UniProt P13945). Nature of the experiment: Agonistic activity was determined by measuring cAMP accumulation in CHO cells expressing cloned human Beta-3 adrenergic receptor. Type of experiment: functional, cell-based. (In general: Changes in cAMP serve as a functional read-out for many G protein-coupled receptors.)
Target sequence in this assay (P13945 whole entry): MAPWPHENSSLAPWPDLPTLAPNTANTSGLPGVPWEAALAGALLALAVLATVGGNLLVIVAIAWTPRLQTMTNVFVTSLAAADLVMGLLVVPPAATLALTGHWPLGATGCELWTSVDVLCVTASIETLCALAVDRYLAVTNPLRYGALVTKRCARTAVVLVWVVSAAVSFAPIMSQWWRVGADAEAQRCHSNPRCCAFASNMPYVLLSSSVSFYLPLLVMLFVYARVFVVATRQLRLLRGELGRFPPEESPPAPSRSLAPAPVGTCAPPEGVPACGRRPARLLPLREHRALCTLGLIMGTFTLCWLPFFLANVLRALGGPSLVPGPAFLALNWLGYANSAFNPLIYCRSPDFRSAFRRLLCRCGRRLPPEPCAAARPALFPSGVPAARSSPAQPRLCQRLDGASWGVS
Experiment [2] concerns the target T2, Beta-1 adrenergic receptor (Homo sapiens, UniProt P08588). Nature of the experiment: Agonistic activity at human Beta-1 adrenergic receptor at 1000 nM concentration. The format is functional.
Target sequence in this assay (P08588 whole entry, looked up): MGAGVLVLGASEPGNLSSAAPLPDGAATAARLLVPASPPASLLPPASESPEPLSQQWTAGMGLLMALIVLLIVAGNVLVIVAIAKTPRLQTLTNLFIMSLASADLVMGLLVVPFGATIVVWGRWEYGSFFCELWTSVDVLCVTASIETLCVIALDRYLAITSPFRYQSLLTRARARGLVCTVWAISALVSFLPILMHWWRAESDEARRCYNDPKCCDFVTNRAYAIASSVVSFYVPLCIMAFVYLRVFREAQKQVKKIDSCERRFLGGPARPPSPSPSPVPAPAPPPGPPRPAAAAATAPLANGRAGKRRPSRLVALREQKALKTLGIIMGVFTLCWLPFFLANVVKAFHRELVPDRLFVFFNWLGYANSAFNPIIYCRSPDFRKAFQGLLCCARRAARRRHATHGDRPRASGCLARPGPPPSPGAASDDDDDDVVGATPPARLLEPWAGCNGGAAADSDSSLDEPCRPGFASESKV
Experiment [3] deals with T1, Beta-3 adrenergic receptor. The experiment is described as follows: Intrinsic activity expressed as percentage of maximal stimulation with isoproterenol of Beta-3 adrenergic receptor. Type of experiment: functional.
Target sequence in this assay (P13945 whole entry, looked up): as the sequence (P13945 whole entry) above
Experiment [4] addresses T3, Beta-2 adrenergic receptor (Homo sapiens, UniProt P07550). Nature of the experiment: (§1) Agonistic activity at human Beta-2 adrenergic receptor at 1000 nM concentration. The format is functional.
Target sequence in this assay (P07550 whole entry, looked up): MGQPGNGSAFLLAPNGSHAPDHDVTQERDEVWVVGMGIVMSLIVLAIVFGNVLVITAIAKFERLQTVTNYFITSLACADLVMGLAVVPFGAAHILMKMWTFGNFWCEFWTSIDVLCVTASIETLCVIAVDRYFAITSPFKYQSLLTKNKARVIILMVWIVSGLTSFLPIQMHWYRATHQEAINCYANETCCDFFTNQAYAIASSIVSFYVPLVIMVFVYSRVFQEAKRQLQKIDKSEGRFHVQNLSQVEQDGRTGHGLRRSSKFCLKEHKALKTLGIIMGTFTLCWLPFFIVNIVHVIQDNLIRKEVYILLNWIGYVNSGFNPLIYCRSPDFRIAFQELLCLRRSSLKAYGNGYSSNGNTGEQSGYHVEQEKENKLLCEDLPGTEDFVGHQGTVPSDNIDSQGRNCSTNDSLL
Experiment [5] concerns the target T2, Beta-1 adrenergic receptor. Nature of the experiment: Binding inhibition constant was determined by inhibition of [125I]-iodocyanopindolol binding to Beta-1 adrenergic receptor.
Target sequence in this assay (P08588 whole entry): as the sequence (P08588 whole entry, looked up) above
For experiment [6], the target named is T1, Beta-3 adrenergic receptor. The experiment is described as follows: Binding inhibition constant was determined by inhibition of [125I]iodocyanopindolol binding to Beta-3 adrenergic receptor.
Target sequence in this assay (P13945 whole entry): as the sequence (P13945 whole entry) above
Experiment [7] addresses T3, Beta-2 adrenergic receptor. Nature of the experiment: Binding inhibition constant was determined by inhibition of [125I]iodocyanopindolol binding to Beta-2 adrenergic receptor.
Target sequence in this assay (P07550 whole entry): as the sequence (P07550 whole entry, looked up) above
For experiment [8], the target named is T3, Beta-2 adrenergic receptor. Nature of the experiment: Agonistic activity was determined by measuring cAMP accumulation in CHO cells expressing cloned human Beta-2 adrenergic receptor. The format is functional, cell-based.
Target sequence in this assay (P07550 whole entry): as the sequence (P07550 whole entry, looked up) above
The target in experiment [9] is T2, Beta-1 adrenergic receptor. The experiment is described as follows: Agonistic activity was determined by measuring cAMP accumulation in CHO cells expressing cloned human Beta-1 adrenergic receptor. The format is functional, cell-based.
Target sequence in this assay (P08588 whole entry): as the sequence (P08588 whole entry, looked up) above
Experiment [10] addresses T2, Beta-1 adrenergic receptor. Nature of the experiment: Intrinsic activity expressed as percentage of maximal stimulation with isoproterenol of Beta-1 adrenergic receptor. The format is functional.
Target sequence in this assay (P08588 whole entry, looked up): as above
For experiment [11], the target named is T1, Beta-3 adrenergic receptor. The experiment is described as §1. Type of experiment: functional.
Target sequence in this assay (P13945 whole entry, looked up): as the sequence (P13945 whole entry) above
Experiment [12] has as its target T3, Beta-2 adrenergic receptor. The experiment is described as follows: Intrinsic activity determined by measuring cAMP accumulation in CHO cells expressing cloned human Beta-2 adrenergic receptor and activity expressed as percentage of maximal stimulation with isoproterenol. Type of experiment: functional, cell-based.
Target sequence in this assay (P07550 whole entry, looked up): as the sequence (P07550 whole entry, looked up) above

In general, pEC50 refers to the negative decadic logarithm of the EC50, by convention in mol/L. Read a high pEC50 as a low EC50. In the case of `CS(=O)(=O)Oc1cccc2c(CCNC[C@H](O)c3cccc(NS(=O)(=O)c4cc(Cl)c(Cl)s4)c3)c[nH]c12`, the pEC50 in experiment [1] was 8.17. Besides, the Activity in experiment [2] is 7%; in [4] it was 18%. In experiment [3], the IA was 93%.

`COc1cccc(S(=O)(=O)Nc2cccc([C@@H](O)CNCCc3c[nH]c4c(OS(C)(=O)=O)cccc34)c2)c1`: in [1], the pEC50 was 9.03. For the same molecule, the Activity in experiment [2] was found to be 11%; in experiment [4], 10%. This molecule also gave an IA in experiment [3] of 97%.

`CS(=O)(=O)Oc1cccc2c(CCNC[C@H](O)c3cccc(NS(=O)(=O)c4ccc(Br)s4)c3)c[nH]c12` had a pEC50 in experiment [1] of 8.55. In addition, the Activity was found to be 6% in experiment [2] and 17% in experiment [4]. The IA in experiment [3] was determined as 82%.

The molecule `CS(=O)(=O)Oc1cccc2c(CCNC[C@H](O)c3cccc(NS(=O)(=O)CC(F)(F)F)c3)c[nH]c12` showed a pEC50 in experiment [1] of 7.32. Further, the Activity in experiment [2] was 0%; in experiment [4], 24%. For the same molecule, the IA in experiment [3] was 49%.

`O=S(=O)(Nc1cccc([C@@H](O)CNCCc2c[nH]c3c(OCc4ccccc4)cccc23)c1)c1cccs1`: the pEC50 in [1] is 8.12. In addition, the figures for the Activity in experiment [2] and in experiment [4] were 10% and 32%, respectively. The same molecule gave an IA in [3] of 81%.

By pKi is commonly meant the negative decadic logarithm of the Ki, by convention in mol/L. In the case of `CS(=O)(=O)Oc1cccc2c(CCNC[C@H](O)c3cccc(NS(=O)(=O)c4cccs4)c3)c[nH]c12`, the pEC50 in [1] was 8.77. Also, the Activity was determined as 12% in experiment [2] and 23% in [4]. Besides, the pKi in experiment [5] is 6.64; in experiment [6], 7.48; in [7] it was 6.65. For the same molecule, in experiment [3], the IA is 89%.

Turning to `C[C@H](Cc1c[nH]c2c(OS(C)(=O)=O)cccc12)NC[C@H](O)c1cccc(NS(=O)(=O)c2cccs2)c1`, the pEC50 in [1] is 9.68; in experiment [8], 7.74; in experiment [9], 7.36. The pKi in experiment [5] is 7.18; in experiment [6] it was 8.40; in [7] it was 7.32. The IA in [3] stood at 97%; in experiment [10], 36%.

In [1], `O=S(=O)(Nc1cccc([C@@H](O)CNCCc2c[nH]c3ccccc23)c1)c1cccs1` showed a pEC50 of 7.68. Further, the Activity is 2% in [2] and 15% in experiment [4]. Further, the IA in experiment [3] was 73%.

In experiment [1], `CS(=O)(=O)Oc1cccc2c(CCNC[C@H](O)c3cccc(NS(=O)(=O)c4cccc(Cl)c4)c3)c[nH]c12` gave a negative-log EC50 (pEC50) of 9.00. The Activity in experiment [2] stood at 11%; in [12], 13%. The same molecule returned an IA in experiment [11] of 96%.

In the case of `COc1cccc2c(CCNC[C@H](O)c3cccc(NS(=O)(=O)c4cccs4)c3)c[nH]c12`, the pEC50 in [1] was 7.89. Also, the values for the Activity in experiment [2] and in experiment [4] were 6% and 16%, respectively. The same molecule showed an IA in experiment [3] of 87%.

`CS(=O)(=O)Oc1cccc2c(CCNC[C@H](O)c3cccc(NS(=O)(=O)c4ccccc4N)c3)c[nH]c12`: the negative-log EC50 (pEC50) in experiment [1] was 8.52. Moreover, the Activity in experiment [2] was found to be 7%; in [4] it was 9%. This molecule came in with an IA in experiment [3] of 80%.

Molecule `Cc1cccc2c(CCNC[C@H](O)c3cccc(NS(=O)(=O)c4cccs4)c3)c[nH]c12` gave a pEC50 in experiment [1] of 7.60. The Activity worked out at 3% in [2] and 9% in experiment [4]. Further, the IA in experiment [3] turned out to be 77%.

In turn, `CS(=O)(=O)Oc1cccc2c(CCNC[C@H](O)c3cccc(NS(=O)(=O)c4ccccc4)c3)c[nH]c12` showed a pEC50 in [1] of 8.70. Also, the figures for the Activity in experiment [2] and in [4] were 14% and 15%, respectively. Further, the IA in experiment [3] stood at 86%.

In the case of `CS(=O)(=O)Oc1cccc2c(CCNC[C@H](O)c3cccc(NS(=O)(=O)c4ccc(N)cc4)c3)c[nH]c12`, the pEC50 in [1] was 8.08. The Activity in experiment [2] was determined as 5%; in [4] it was 15%. The molecule further had an IA in experiment [3] of 85%.

`CS(=O)(=O)Oc1cccc2c(CCNC[C@H](O)c3cccc(NS(=O)(=O)c4cccc(N)c4)c3)c[nH]c12`: in experiment [1], the pEC50 is 9.51. In addition, the Activity in experiment [2] came out at 3%; in experiment [4] it was 6%. In addition, the pKi was 7.05 in experiment [5], 8.59 in experiment [6] and 7.15 in experiment [7]. For the same molecule, in [3], the IA amounted to 105%.

`CS(=O)(=O)Oc1cccc2c(CCNC[C@H](O)c3cccc(NS(=O)(=O)c4cccc(F)c4)c3)c[nH]c12` gave a pEC50 in experiment [1] of 8.62. Further, the figures for the Activity in [2] and in experiment [4] were 10% and 8%, respectively. In experiment [3], this molecule gave an IA of 97%.
